Experimental findings from ChEMBL document CHEMBL1201862, “PubChem BioAssay data set” (2004) are described below.

Test [1] can be described thus: NIH3T3 cell viability loss – ATP luminescence, mouse fibroblasts, counter-screen, dose response (AID 2010).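 Note: cells exposed to compound for about 90 hours before reading.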 The format is functional, cell-based.
A short description of test [2]: Trypanosoma cruzi growth suppression in host cells – NIH3T3 host cells, beta-gal luminescence, confirmation (AID 2044).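 Note: intracellular parasites grown in NIH/3T3 mouse fibroblasts as host cells; luminescent beta-galactosidase reporter signal from transgenic T. cruzi replicating inside host cells; inhibitors lower the luminescence signal.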 The format is functional, cell-based.
Test [3] in a line: HepG2 cell cytotoxicity, dose response, cytotoxicity control for non-replicating M. tuberculosis project (AID 489018). Format: functional. The conditions noted are these: Mycobacterium tuberculosis.
A short description of a further test: cells. Format: functional.
Test [4] can be described thus: Vero E6 cell cytotoxicity, dose response, cytotoxicity control for non-replicating M. tuberculosis project, secondary assay (AID 492998). The following applies: Vero C1008. The format is functional, VeroE6.
Test [5] can be described thus: THP-1 cell cytotoxicity, dose response, cytotoxicity control for non-replicating M. tuberculosis project (AID 489025). The format is functional.
Test [6] concerns the target T1, High affinity choline transporter 1 (Homo sapiens, UniProt Q9GZV3).
T1 sequence (Q9GZV3 whole entry): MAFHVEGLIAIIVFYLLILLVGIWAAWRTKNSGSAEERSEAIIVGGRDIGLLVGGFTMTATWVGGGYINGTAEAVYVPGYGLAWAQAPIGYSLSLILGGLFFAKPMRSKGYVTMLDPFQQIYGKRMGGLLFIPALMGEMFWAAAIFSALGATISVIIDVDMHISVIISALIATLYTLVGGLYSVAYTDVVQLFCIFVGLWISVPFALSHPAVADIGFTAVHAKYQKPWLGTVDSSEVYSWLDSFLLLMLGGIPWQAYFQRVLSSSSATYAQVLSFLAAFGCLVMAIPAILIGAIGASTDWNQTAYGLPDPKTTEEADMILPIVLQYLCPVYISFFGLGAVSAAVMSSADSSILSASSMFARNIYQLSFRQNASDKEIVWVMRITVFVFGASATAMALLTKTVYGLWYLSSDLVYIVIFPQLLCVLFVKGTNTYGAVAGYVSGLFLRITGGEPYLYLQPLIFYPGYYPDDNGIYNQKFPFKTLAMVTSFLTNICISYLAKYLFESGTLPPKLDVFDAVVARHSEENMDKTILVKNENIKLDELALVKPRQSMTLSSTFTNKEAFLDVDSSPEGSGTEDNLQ
Kind of test: human choline transporter blockers, potency – cell-based, 5-point CRC, membrane potential dye, dose response (AID 504840). The format is functional.

The target of test [7] is T2, Alkaline phosphatase, tissue-nonspecific isozyme (Homo sapiens, UniProt P05186).
T2 sequence (P05186 whole entry): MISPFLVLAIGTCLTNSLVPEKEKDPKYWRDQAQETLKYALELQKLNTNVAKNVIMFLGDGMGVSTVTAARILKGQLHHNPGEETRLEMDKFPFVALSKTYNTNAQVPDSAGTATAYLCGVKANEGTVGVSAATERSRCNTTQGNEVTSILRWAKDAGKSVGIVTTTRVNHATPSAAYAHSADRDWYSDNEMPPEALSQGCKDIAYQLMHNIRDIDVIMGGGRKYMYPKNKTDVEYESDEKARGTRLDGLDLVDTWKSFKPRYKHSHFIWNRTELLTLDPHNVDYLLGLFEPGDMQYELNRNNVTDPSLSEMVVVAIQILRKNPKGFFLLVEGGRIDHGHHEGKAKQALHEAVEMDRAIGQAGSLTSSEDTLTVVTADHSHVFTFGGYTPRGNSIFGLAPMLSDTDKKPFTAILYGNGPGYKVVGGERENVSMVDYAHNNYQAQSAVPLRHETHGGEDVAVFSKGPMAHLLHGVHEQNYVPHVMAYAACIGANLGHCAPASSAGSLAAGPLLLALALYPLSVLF
Nature of the test: potency against alkaline phosphatase TNAP – biochemical, luminescent, dose response, SAR follow-up (AID 1056).

The target in test [8] is Glyceraldehyde-3-phosphate dehydrogenase (Homo sapiens, UniProt P04406).
Test [9] concerns the target Alkaline phosphatase, placental type (Homo sapiens, UniProt P05187). Kind of test: human placental alkaline phosphatase inhibition – biochemical, luminescence, confirmation (AID 1512). The format is functional.
The next test addresses T3, Coagulation factor XII (Homo sapiens, UniProt P00748).
T3 sequence (P00748 whole entry): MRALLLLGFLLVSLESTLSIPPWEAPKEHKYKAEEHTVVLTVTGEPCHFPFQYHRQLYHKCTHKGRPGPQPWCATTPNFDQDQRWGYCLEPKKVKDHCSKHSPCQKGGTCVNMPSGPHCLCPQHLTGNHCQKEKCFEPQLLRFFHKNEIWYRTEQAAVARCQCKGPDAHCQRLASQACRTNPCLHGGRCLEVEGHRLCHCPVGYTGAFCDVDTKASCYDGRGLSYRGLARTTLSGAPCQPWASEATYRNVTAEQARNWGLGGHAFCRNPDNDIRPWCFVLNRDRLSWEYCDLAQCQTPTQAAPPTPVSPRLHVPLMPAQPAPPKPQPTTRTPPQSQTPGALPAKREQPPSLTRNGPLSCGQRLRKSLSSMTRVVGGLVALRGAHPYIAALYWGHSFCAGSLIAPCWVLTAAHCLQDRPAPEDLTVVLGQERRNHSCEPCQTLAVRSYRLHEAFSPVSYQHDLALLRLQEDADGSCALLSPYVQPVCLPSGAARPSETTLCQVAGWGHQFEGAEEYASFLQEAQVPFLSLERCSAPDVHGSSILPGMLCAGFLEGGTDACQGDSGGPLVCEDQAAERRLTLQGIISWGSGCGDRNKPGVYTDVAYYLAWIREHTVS
Format: functional.

For test [10], the target named is Heat shock protein HSP 90-alpha (Homo sapiens, UniProt P07900). Format: functional, organism-based.
Test [11] concerns the target G-protein coupled receptor 55 (Homo sapiens, UniProt Q9Y2T6). Nature of the test: inhibition of LPI-stimulated GPR55 beta-arrestin translocation – imaging, U2OS, beta-arrestin-GFP, LPI agonist, primary screen (AID 2013).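 Note: antagonist potency measured as reduced agonist-driven arrestin aggregation.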 The format is functional.
Test [12] concerns the target T4, Heat shock factor protein 1 (Mus musculus, UniProt P38532).
T4 sequence (P38532 whole entry): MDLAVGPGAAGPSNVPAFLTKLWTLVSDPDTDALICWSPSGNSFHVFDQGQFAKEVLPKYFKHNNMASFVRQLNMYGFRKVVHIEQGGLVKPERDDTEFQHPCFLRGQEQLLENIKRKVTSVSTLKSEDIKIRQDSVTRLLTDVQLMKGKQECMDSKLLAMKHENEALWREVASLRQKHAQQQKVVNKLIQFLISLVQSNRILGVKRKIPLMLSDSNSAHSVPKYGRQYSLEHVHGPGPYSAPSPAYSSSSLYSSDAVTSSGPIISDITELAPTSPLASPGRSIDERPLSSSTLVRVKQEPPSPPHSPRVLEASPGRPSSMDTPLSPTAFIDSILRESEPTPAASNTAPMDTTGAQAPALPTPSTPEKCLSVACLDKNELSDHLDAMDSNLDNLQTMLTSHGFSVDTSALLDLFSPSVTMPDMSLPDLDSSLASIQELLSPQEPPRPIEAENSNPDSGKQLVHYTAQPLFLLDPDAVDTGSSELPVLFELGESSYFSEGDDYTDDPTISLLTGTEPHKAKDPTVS
Nature of the test: enhancement of HSF1-driven luciferase signal – cell-based, NIH3T3, luminescence, dose retest, confirmation (AID 435004).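 Note: stress induced by proteasome inhibitor MG132 added 30 min after compound; luciferase reporter driven by HSF1 response element in NIH3T3 cells; actives raise luminescence as potentiators of the MG132 stress response.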 Format: functional.

The target of the next test is Ion channel NompC (Danio rerio, UniProt Q7T1G6). Kind of test: Dose response cell-based high-throughput screening assay for agonists of the transient receptor potential channel N1 (TRPN1). [Related pubchem assays (depositor defined):AID1424, AID1448]. The format is functional.
A further test deals with T5, Mucolipin-3 (Homo sapiens, UniProt Q8TDD5).
T5 sequence (Q8TDD5 whole entry): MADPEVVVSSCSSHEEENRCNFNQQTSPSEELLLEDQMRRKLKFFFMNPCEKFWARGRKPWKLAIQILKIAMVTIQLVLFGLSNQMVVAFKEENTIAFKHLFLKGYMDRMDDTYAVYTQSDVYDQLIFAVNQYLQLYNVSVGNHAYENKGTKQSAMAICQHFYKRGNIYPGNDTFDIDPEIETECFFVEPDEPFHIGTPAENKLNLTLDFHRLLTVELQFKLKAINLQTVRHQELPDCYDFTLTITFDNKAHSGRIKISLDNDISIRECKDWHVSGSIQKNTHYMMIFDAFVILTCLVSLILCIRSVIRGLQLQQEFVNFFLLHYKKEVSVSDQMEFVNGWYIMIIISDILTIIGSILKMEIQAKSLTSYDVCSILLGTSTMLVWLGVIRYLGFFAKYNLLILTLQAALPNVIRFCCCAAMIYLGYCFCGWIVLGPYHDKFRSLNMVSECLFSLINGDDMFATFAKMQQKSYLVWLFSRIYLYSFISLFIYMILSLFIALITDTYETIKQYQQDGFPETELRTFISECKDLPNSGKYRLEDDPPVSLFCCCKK
Kind of test: Fluorescence counterscreen assay for […] agonists: dose response cell-based high-throughput screening assay to identify agonists of the transient receptor potential channel ML3 (TRPML3). [Related pubchem assays: 1424, 1448 ]. The format is functional. On the technique in general: A counterscreen serves to expose hits that act by an unwanted route or on another target.

Test [13] deals with Peroxisome proliferator-activated receptor gamma/Nuclear receptor coactivator 1 (Homo sapiens, UniProt P37231). Nature of the test: TR-FRET dose response biochemical High Throughput Screening assay for agonists of the steroid receptor coactivator 1 (SRC-1) recruitment by the peroxisome proliferator-activated receptor gamma (PPAR gamma): non-selective agonists. [Related pubchem assays (depositor defined):AID1300, AID1808, AID504735, AID631]. Format: protein assay. (In general: TR-FRET usually uses a lanthanide donor and a delayed reading to cut background.)

For test [14], the target named is Peroxisome proliferator-activated receptor gamma/Nuclear receptor coactivator 3 (Homo sapiens, UniProt P37231). Kind of test: TR-FRET dose response biochemical High Throughput Screening assay for agonists of the steroid receptor coactivator 3 (SRC-3) recruitment by the peroxisome proliferator-activated receptor gamma (PPAR gamma): non-selective agonists. [Related pubchem assays: 1301 (Confirmation screen.), 1048 (Primary screen.)]. Format: functional.

Test [15] concerns the target Peroxisome proliferator-activated receptor gamma/Nuclear receptor coactivator 2 (Homo sapiens, UniProt P37231). Nature of the test: TR-FRET dose response biochemical High Throughput Screening assay for agonists of the steroid receptor coactivator 2 (SRC-2) recruitment by the peroxisome proliferator-activated receptor gamma (PPAR gamma): non-selective agonists. [Related pubchem assays: 1297, 1032 ]. The format is functional.

The source made the active and inactive calls.

Alkaline phosphatase, placental type, sequence (P05187 whole entry): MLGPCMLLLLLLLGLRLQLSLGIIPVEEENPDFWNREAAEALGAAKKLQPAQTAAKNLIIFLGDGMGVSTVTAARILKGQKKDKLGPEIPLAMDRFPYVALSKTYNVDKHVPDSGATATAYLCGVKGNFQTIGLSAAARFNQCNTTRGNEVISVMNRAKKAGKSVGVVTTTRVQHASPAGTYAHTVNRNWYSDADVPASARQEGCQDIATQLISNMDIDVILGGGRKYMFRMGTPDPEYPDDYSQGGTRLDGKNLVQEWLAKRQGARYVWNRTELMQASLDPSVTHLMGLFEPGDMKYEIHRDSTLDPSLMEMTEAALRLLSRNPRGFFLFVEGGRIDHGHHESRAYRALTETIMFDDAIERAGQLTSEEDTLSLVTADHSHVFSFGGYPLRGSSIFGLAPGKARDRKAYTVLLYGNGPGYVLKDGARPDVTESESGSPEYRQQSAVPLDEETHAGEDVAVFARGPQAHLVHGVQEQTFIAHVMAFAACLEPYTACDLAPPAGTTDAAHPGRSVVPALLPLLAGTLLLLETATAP
Peroxisome proliferator-activated receptor gamma/Nuclear receptor coactivator 1, sequence (P37231 whole entry): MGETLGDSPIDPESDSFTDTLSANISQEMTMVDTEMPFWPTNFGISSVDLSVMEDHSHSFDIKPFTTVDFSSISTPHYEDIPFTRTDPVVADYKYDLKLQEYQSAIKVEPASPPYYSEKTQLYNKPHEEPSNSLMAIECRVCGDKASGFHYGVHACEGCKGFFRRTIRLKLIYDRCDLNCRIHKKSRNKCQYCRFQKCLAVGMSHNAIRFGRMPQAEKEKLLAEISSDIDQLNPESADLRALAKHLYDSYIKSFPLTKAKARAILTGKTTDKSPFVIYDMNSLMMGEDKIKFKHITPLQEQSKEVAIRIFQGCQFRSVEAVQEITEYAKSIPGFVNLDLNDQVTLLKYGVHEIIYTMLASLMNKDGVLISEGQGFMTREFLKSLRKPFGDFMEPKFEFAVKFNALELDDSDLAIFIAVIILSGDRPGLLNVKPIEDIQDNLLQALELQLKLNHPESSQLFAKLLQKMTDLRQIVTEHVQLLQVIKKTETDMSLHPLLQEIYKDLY
Peroxisome proliferator-activated receptor gamma/Nuclear receptor coactivator 1, sequence (Q15788 whole entry, further chain): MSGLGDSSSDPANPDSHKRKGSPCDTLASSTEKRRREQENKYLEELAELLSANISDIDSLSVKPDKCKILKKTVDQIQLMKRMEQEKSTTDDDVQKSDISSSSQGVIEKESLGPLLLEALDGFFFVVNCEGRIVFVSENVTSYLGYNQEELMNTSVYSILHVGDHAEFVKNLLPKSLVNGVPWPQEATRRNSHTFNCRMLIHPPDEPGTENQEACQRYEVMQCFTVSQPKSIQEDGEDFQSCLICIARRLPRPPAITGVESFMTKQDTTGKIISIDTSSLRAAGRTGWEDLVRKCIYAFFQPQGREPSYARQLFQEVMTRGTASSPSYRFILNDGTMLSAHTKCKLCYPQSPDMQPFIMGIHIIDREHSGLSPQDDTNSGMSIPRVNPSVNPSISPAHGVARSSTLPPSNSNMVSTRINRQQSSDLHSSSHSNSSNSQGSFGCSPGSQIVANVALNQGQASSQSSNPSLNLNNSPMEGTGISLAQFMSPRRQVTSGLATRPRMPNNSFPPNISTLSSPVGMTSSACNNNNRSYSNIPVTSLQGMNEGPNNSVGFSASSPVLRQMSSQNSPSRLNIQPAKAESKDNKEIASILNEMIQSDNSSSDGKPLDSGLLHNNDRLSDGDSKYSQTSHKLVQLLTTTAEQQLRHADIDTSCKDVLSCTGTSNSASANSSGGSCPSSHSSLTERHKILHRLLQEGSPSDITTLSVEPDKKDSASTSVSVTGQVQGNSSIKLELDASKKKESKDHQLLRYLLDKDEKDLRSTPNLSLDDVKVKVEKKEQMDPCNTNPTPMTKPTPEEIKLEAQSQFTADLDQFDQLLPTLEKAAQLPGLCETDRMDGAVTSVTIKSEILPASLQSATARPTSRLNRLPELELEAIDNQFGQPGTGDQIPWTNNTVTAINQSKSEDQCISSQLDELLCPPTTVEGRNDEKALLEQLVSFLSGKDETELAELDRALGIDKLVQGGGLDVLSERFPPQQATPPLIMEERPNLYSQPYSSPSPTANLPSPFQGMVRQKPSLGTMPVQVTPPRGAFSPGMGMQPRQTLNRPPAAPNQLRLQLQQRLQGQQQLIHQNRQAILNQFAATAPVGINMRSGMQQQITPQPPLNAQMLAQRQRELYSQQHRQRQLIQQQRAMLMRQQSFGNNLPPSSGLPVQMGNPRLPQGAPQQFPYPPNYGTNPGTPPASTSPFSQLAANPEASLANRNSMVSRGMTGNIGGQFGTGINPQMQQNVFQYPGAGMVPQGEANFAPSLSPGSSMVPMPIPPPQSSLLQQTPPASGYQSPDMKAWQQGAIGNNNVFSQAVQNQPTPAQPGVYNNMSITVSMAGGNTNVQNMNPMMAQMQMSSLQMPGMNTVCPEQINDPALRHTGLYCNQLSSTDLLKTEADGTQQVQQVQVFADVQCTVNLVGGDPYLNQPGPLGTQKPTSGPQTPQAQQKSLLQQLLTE
Peroxisome proliferator-activated receptor gamma/Nuclear receptor coactivator 3, sequence (P37231 whole entry): as the sequence (P37231 whole entry) above
Peroxisome proliferator-activated receptor gamma/Nuclear receptor coactivator 3, sequence (Q9Y6Q9 whole entry, further chain): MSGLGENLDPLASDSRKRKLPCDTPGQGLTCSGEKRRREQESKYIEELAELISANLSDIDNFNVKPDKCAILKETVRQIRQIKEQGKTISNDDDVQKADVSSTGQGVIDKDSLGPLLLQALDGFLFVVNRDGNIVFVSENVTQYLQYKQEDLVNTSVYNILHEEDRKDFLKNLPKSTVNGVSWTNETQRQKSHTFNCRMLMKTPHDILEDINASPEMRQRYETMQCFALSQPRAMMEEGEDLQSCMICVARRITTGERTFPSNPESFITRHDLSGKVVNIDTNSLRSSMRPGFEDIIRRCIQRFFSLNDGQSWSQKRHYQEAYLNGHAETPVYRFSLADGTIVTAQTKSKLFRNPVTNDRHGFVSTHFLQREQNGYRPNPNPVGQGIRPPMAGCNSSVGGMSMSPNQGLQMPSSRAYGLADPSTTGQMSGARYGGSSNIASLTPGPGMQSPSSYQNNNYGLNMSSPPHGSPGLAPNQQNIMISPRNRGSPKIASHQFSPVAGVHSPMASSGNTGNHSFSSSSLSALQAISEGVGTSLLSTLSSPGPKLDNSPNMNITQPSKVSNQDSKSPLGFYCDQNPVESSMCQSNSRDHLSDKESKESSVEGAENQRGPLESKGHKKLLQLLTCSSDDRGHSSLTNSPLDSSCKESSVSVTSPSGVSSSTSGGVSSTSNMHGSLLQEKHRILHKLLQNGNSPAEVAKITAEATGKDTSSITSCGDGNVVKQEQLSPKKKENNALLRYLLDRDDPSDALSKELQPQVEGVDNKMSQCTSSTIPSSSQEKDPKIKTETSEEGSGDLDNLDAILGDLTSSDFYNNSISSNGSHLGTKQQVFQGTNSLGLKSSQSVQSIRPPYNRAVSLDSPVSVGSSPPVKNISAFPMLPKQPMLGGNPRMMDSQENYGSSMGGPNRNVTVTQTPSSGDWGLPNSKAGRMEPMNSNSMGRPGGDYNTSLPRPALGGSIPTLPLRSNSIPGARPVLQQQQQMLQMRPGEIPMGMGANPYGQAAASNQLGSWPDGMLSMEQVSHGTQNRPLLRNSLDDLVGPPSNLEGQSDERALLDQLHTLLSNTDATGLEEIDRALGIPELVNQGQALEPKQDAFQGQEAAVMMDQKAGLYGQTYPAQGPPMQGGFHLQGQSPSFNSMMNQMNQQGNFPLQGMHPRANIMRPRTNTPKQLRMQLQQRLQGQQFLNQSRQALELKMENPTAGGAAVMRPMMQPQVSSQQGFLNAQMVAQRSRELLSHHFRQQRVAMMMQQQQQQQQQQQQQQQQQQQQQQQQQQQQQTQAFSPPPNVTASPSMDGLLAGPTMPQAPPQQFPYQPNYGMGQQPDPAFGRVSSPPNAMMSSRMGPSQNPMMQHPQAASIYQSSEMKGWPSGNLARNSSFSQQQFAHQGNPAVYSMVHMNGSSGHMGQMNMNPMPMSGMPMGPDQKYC
Glyceraldehyde-3-phosphate dehydrogenase, sequence (P04406 whole entry): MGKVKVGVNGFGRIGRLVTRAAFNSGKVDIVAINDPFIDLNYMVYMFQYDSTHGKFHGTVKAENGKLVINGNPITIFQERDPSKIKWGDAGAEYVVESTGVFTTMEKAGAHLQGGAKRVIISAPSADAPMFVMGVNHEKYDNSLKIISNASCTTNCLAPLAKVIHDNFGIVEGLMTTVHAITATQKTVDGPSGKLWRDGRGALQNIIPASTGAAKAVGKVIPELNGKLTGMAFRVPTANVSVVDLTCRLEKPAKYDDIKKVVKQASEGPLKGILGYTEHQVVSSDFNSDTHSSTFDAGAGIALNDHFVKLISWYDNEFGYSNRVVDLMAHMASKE
G-protein coupled receptor 55, sequence (Q9Y2T6 whole entry): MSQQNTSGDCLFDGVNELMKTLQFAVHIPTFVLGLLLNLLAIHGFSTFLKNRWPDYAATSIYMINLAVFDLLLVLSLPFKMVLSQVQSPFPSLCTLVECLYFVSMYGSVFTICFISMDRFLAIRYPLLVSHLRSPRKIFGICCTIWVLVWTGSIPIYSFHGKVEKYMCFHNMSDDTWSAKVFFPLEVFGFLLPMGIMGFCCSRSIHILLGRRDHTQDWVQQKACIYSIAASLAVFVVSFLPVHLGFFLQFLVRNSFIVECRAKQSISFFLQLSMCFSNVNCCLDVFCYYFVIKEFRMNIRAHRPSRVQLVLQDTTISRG

The term EC50 denotes the midpoint of the concentration-response curve. What is called CC50 is the concentration at which the toxic effect on the cells reaches its halfway point. In general, IC50 refers to the concentration that inhibits the measured activity by half. In the case of `CN(C)CCCn1c(=O)n(CCc2ccccc2)c(=O)c2c3c(sc21)CCCCC3`, the values for the concentration giving a half-maximal response (EC50) in test [1] and in test [2] were 36.1 µM (active) and 0.113 µM (active), respectively. For the same molecule, the 50% cytotoxic concentration (CC50) is 14.3 µM (active) in test [3], 12.5 µM (active) in test [4] and 19.1 µM (active) in test [5]. In addition, the values for the 50% inhibitory concentration (IC50) (in “cells”; in test [6]) were 21.2 µM (active) and 12.6 µM (active), respectively.

In the case of `COC(=O)c1cc(-c2cc(F)c(Cl)cc2Cl)n[nH]1`, the concentration for half-maximal inhibition (IC50) is 0.911 µM (active) in test [7], > 100 µM (not active) in test [8] and > 100 µM (inactive) in [9].

Turning to `Cn1c(SCC(=O)c2ccccc2)nnc1-c1cccc(N)c1`, the IC50 in test [7] was > 100 µM (inactive); at Coagulation factor XII it was > 50 µM (inactive); in [9], > 100 µM (inactive).

Usually AC50 stands for the concentration giving half of the maximal activity seen. In the case of `Clc1ccccc1CN(Cc1ccco1)Cc1nnnn1C1CCCC1`, the AC50 in [10] was 5.48 µM (active). In [11], the 50% inhibitory concentration (IC50) was 4.16 µM (active). Besides, in [12], the EC50 is > 260 µM (inactive).

For `CCOC(=O)c1ccc(NC(=O)Nc2ccc(F)cc2)cc1`, the figures for the EC50 at Ion channel NompC and at Mucolipin-3 were > 9.97 µM (inactive) and > 29.9 µM (not active), respectively.

Regarding `Brc1ccc(-c2nc3ccccc3s2)s1`, the 50% effective concentration (EC50) in test [13] was 3.34 µM (active); in test [14], 81.4 µM (not active); in test [15] it was 3.18 µM (active).

Turning to `Cn1c(=O)cc(SCC(=O)N2CCC3(CC2)OCCO3)c2ccccc21`, the EC50 in test [13] was > 79.4 µM (inactive); in test [14] it was > 79.4 µM (not active); in [15] it was > 79.4 µM (not active).
